Experimental data published in article PMC12396409, “Screening and hit evaluation of a microbial metabolite library against the pathogenic Plasmodium falciparum and Toxoplasma gondii parasites” (International Journal for Parasitology: Drugs and Drug …, 2025).
Read-outs that look alike come from different tables or passages of the source.

What was measured:
[1] = test system: P. falciparum 3D7 parasites; assay: P. falciparum growth inhibition assay, 1-cycle (72 h treatment), SYBR DNA staining (library screen at 2 μg/mL and dose-response); assay type: cell-based, Plasmodium falciparum
[2] = test system: P. falciparum 3D7 parasites; assay: P. falciparum growth inhibition assay, 2-cycle (120 h treatment), delayed-death screen and dose-response; assay type: cell-based, Plasmodium falciparum
[3] = test system: T. gondii RH strain (RH-Tub-eYFP) tachyzoites; assay: microbe, parasite or virus in culture; assay type: cell-based, Toxoplasma gondii; settings: 72 h; for percent parasite growth at 2 µg/mL: Toxoplasma gondii
[4] = library screen at 2 μg/mL, 72 h, % growth, replicate 1
[5] = library screen at 2 μg/mL, 72 h, % growth, replicate 2
[6] = library screen at 2 μg/mL, 120 h, % growth, replicate 2
[7] = library screen at 2 μg/mL, % growth, replicate 1
[8] = library screen at 2 μg/mL, % growth, replicate 2
[9] = library screen at 2 μg/mL, 120 h, % growth, replicate 1
[10] = T. gondii, 2 μg/mL, values are growth (% of control)

Structure (SMILES): CC(C)[C@H]1C(=O)O[C@H](C(C)C)C(=O)N(C)[C@@H](C(C)C)C(=O)O[C@H](C(C)C)C(=O)N(C)[C@@H](C(C)C)C(=O)O[C@H](C(C)C)C(=O)N1C [Enniatin B]
- activity at 2 µg/mL ([1]; Plasmodium falciparum, 3D7, library screen at 2 μg/mL, 72 h, % growth, replicate 1, read-out: Pf_72h_%Growth_Rep1): 4.68%
- activity at 2 µg/mL ([1]; Plasmodium falciparum, 3D7, library screen at 2 μg/mL, 72 h, % growth, replicate 2, read-out: Pf_72h_%Growth_Rep2): 1.65%
- activity at 2 µg/mL ([2]; Plasmodium falciparum, 3D7, library screen at 2 μg/mL, 120 h, % growth, replicate 1, read-out: Pf_120h_%Growth_Rep1): 2.26%
- activity at 2 µg/mL ([2]; Plasmodium falciparum, 3D7, library screen at 2 μg/mL, 120 h, % growth, replicate 2, read-out: Pf_120h_%Growth_Rep2): 4.15%
- percent parasite growth at 2 µg/mL ([3]; library screen at 2 μg/mL, % growth, replicate 1, read-out: Tg_72h_%Growth_Rep1): 3.2%
- percent parasite growth at 2 µg/mL ([3]; library screen at 2 μg/mL, % growth, replicate 2, read-out: Tg_72h_%Growth_Rep2): 30.3%

Structure (SMILES): O=C1c2c(O)cc(O)cc2OC1(O)Cc1ccc(O)c(O)c1 (stereo not drawn) [Alphitonin]
- Pf_72h_%Growth_Rep1 [1, 4]: 88.31%
- Pf_72h_%Growth_Rep2 [1, 5]: 93.84%
- Pf_120h_%Growth_Rep1 [2]: 96.34%
- Pf_120h_%Growth_Rep2 [2, 6]: 94.83%
- Tg_72h_%Growth_Rep1 [3, 7]: 106.55%
- Tg_72h_%Growth_Rep2 [3, 8]: 96.34%

Structure (SMILES): C/C=C/C=C/[C@H]1Cc2cc(O)cc(O)c2O1 [Asperfuran]
- Pf_72h_%Growth_Rep1 [1, 4]: 81.82%
- Pf_72h_%Growth_Rep2 [1, 5]: 86.77%
- Pf_120h_%Growth_Rep1 [2, 9]: 70.89%
- Pf_120h_%Growth_Rep2 [2, 6]: 94.19%
- Tg_72h_%Growth_Rep1 [3, 7]: 65.57%
- Tg_72h_%Growth_Rep2 [3, 8]: 59.68%

Structure (SMILES): COc1cc2c3c(c1O)-c1c(cc(O)c(OC)c1OC)CCC3N(C)CC2 (stereo not drawn) [Floramultine]
- Pf_72h_%Growth_Rep1 [1, 4]: 85.55%
- Pf_72h_%Growth_Rep2 [1, 5]: 120.01%
- Pf_120h_%Growth_Rep1 [2, 9]: 85.60%
- Pf_120h_%Growth_Rep2 [2, 6]: 101.00%
- Tg_72h_%Growth_Rep1 [3, 7]: 115.84%
- Tg_72h_%Growth_Rep2 [3, 8]: 93.93%

Structure (SMILES): COC1=CC(=O)c2c(n(C)c3occc3c2=O)C1=O [BIA-M1955]
- Pf_72h_%Growth_Rep1 ([1]; P. falciparum 3D7, 72 h, parasite screen at 2 μg/mL, % growth, replicate 1): 39.08%
- Pf_72h_%Growth_Rep2 ([1]; P. falciparum 3D7, 72 h, parasite screen at 2 μg/mL, % growth, replicate 2): 29.78%
- Pf_120h_%Growth_Rep1 ([2]; P. falciparum 3D7, 120 h, parasite screen at 2 μg/mL, % growth, replicate 1): 53.96%
- Pf_120h_%Growth_Rep2 ([2]; P. falciparum 3D7, 120 h, parasite screen at 2 μg/mL, % growth, replicate 2): 26.88%
- Tg_72h_%Growth_Rep1 ([3]; T. gondii, parasite screen at 2 μg/mL, % growth, replicate 1): 248.99%
- Tg_72h_%Growth_Rep2 ([3]; T. gondii, parasite screen at 2 μg/mL, % growth, replicate 2): 112.97%

Structure (SMILES): CC(=O)OC1CCC(C)C2C1C=C(C)C1C(C)=CCCC(C)=CC3(C)C=C(C)C(C)CC34OC(=O)C(=C(O)C12C)C4=O (stereo not drawn) [Tetromycin A]
- Pf_72h_%Growth_Rep1 ([1]; P. falciparum, 72 h, screen at 2 μg/mL, replicate 1): 87.03%
- Pf_72h_%Growth_Rep2 ([1]; P. falciparum, 72 h, screen at 2 μg/mL, replicate 2): 84.23%
- Pf_120h_%Growth_Rep1 ([2]; P. falciparum, 120 h, screen at 2 μg/mL, replicate 1): 96.09%
- Pf_120h_%Growth_Rep2 ([2]; P. falciparum, 120 h, screen at 2 μg/mL, replicate 2): 91.15%
- Tg_72h_%Growth_Rep1 ([3]; T. gondii, screen at 2 μg/mL, replicate 1): 141.34%
- Tg_72h_%Growth_Rep2 ([3]; T. gondii, screen at 2 μg/mL, replicate 2): 89.51%

Structure (SMILES): CO[C@@H]1[C@@H](OC(N)=O)[C@@H](O)[C@H](Oc2ccc3c(O)c(NC(=O)c4ccc(O)c(CC=C(C)C)c4)c(=O)oc3c2C)OC1(C)C [Novobiocin, reference compound]
- activity at 2 µg/mL ([1]; Plasmodium falciparum, 3D7, 72 h, P. falciparum, 2 μg/mL, 72 h; read-out: 1) Growth (%) at 72 h): 81.4%
- 3) Fold change (72 h/120 h) [2]: 5.7
- activity at 2 µg/mL ([2]; Plasmodium falciparum, 3D7, 120 h, P. falciparum, 2 μg/mL, 120 h; read-out: 2) Growth (%) at 120 h): 14.2%
- Mean ([3]; T. gondii, 2 μg/mL, mean of both replicates, growth (% of control)): 51.41
- Replicate 1 [3, 10]: 9.17
- Replicate 2 [3, 10]: 93.65

Structure (SMILES): COC1=C(OC)C(=O)C(C)=C(C)C1=O [Aurantiogliocladin]
- Pf_72h_%Growth_Rep1 [1, 4]: 5.55%
- Pf_72h_%Growth_Rep2 [1, 5]: 9.01%
- Pf_120h_%Growth_Rep1 [2, 9]: 10.46%
- Pf_120h_%Growth_Rep2 [2, 6]: -13.06%
- Tg_72h_%Growth_Rep1 [3, 7]: 92.07%
- Tg_72h_%Growth_Rep2 [3, 8]: 99.65%
